Each block holds one compound with its values, some of them ahead of it.
Columns and labels:
[1] = system: HL-60; experiment: Induction of apoptosis in human HL-60 cells assessed as early apoptotic cells at 0.6 uM incubated for 48 hrs by annexin V-FITC/PI satining based flow cytometry (reference value: 2.4 %); type: functional
[2] = system: HL-60; experiment: Induction of apoptosis in human HL-60 cells assessed as early apoptotic cells at 2.5 uM incubated for 48 hrs by annexin V-FITC/PI satining based flow cytometry (reference value: 2.4 %); type: functional
[3] = system: HL-60; experiment: Induction of apoptosis in human HL-60 cells assessed as early apoptotic cells at 5 uM incubated for 48 hrs by annexin V-FITC/PI satining based flow cytometry (reference value: 2.4 %); type: functional
[4] = system: HL-60; experiment: Induction of apoptosis in human HL-60 cells assessed as late apoptotic cells at 0.6 uM incubated for 48 hrs by annexin V-FITC/PI satining based flow cytometry (reference value: 2.83 %); type: functional
[5] = system: HL-60; experiment: Induction of apoptosis in human HL-60 cells assessed as necrotic cells at 2.5 uM incubated for 48 hrs by annexin V-FITC/PI satining based flow cytometry (reference value: 0.04 %); type: functional
[6] = system: HL-60; experiment: Induction of apoptosis in human HL-60 cells assessed as necrotic cells at 5 uM incubated for 48 hrs by annexin V-FITC/PI satining based flow cytometry (reference value: 0.04 %); type: functional
[7] = system: U-937; experiment: Induction of apoptosis in human U-937 cells assessed as viable cells at 2.5 uM incubated for 48 hrs by annexin V-FITC/PI satining based flow cytometry (reference value: 93.7 %); type: functional; settings: read-out: Activity
[8] = system: U-937; experiment: Induction of apoptosis in human U-937 cells assessed as early apoptotic cells at 2.5 uM incubated for 48 hrs by annexin V-FITC/PI satining based flow cytometry (reference value: 1.93 %); type: functional
[9] = system: U-937; experiment: Induction of apoptosis in human U-937 cells assessed as necrotic cells at 1.2 uM incubated for 48 hrs by annexin V-FITC/PI satining based flow cytometry (reference value: 0.102 %); type: functional
[10] = system: HL-60; experiment: Induction of differentiation in human HL-60 cells assessed as increase in CD11b positive cells at 1.2 uM incubated for 24 hrs by FITC staining based flow cytometry (reference value: 1.12 %); type: functional
[11] = system: Kasumi 1; experiment: Cytotoxicity against human Kasumi 1 cells assessed as CD34positive CD38negative leukemic stem cell-like cells sub-population at 0.5 uM incubated for 24 hrs by APC/FITC satining based flow cytometry (reference value: 95.8 %); type: functional
[12] = Cytotoxicity against human Kasumi 1 cells assessed as CD34positive CD38negative leukemic stem cell-like cells sub-population at 1 uM incubated for 24 hrs by APC/FITC satining based flow cytometry (reference value: 95.8 %); type: functional
[13] = molecular target: Histone deacetylase 2 (Homo sapiens, UniProt Q92769); experiment: Inhibition of HDAC2 in human nuclear extract using Ac-Arg-Gly-Lys(Ac)-AMC as substrate at 1 uM incubated overnight by fluorescence based assay relative to control; type: subcellular; settings: HeLa, Nucleus
Sequence of Histone deacetylase 2 (Q92769 whole entry): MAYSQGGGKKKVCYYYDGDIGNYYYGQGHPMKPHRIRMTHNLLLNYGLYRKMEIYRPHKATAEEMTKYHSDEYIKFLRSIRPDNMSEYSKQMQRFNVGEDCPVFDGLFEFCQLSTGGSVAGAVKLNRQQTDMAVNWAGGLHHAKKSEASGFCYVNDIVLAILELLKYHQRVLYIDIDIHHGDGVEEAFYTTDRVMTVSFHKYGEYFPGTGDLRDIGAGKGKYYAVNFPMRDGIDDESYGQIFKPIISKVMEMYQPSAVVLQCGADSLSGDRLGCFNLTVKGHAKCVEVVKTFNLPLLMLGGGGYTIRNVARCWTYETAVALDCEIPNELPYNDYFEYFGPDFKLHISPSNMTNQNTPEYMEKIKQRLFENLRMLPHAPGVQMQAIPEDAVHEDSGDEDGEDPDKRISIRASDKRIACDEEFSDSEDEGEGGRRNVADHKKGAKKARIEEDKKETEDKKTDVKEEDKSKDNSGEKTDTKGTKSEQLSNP

[14] = molecular target: T1, Histone deacetylase 3 (Homo sapiens, UniProt O15379); experiment: Inhibition of HDAC3 in human nuclear extract using Ac-Arg-Gly-Lys(Ac)-AMC as substrate at 1 uM incubated overnight by fluorescence based assay relative to control; type: subcellular; settings: HeLa, Nucleus
T1 sequence (O15379 whole entry): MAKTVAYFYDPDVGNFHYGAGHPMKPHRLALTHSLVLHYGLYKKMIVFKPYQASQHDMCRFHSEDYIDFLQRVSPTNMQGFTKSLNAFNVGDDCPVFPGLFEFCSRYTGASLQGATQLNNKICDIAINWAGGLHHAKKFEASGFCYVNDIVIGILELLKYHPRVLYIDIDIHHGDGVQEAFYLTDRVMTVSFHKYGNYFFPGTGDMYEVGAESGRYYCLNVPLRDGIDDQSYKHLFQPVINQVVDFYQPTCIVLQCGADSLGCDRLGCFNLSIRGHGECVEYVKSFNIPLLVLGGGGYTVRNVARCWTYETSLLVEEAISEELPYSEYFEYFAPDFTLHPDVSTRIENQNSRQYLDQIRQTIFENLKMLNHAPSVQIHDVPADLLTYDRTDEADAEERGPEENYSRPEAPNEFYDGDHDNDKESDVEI

[15] = Antiproliferative activity against HEK293T cells incubated for 72 hrs by CCK8 assay; type: toxicity, cell-based, HEK-293T; settings: human
[16] = molecular target: T1, Histone deacetylase 3; experiment: Inhibition of recombinant human HDAC3 using HDAC substrate incubated for 30 mins by fluorescence based assay
[17] = molecular target: Cyclin-dependent kinase 4/cyclin D1 (Homo sapiens) (UniProt P11802+P24385); experiment: Inhibition of CDK4/cyclinD1 (unknown origin) at 100 nM preincubated for 20 mins followed by [gamma-33P]ATP addition measured after 120 mins in presence of ATP by Hot-SpotSM kinase assay relative to control; type: protein-complex assay; settings: time 140.0 min
[18] = molecular target: Cyclin-C/Cyclin-dependent kinase 19 (Homo sapiens) (UniProt Q9BWU1+P24863); experiment: Inhibition of CDK19/cyclinC (unknown origin) at 100 nM preincubated for 20 mins followed by [gamma-33P]ATP addition measured after 120 mins in presence of ATP by Hot-SpotSM kinase assay relative to control; type: protein-complex assay; settings: time 140.0 min
[19] = system: HL-60; experiment: Downregulation of Pol-II S2 level in human HL-60 cells incubated for 6 hrs by Western blot analysis; type: functional, cell-based; settings: dose <= 1000.0 nM
[20] = system: HL-60; experiment: Induction of apoptosis in human HL-60 cells assessed as viable cells at 0.2 uM incubated for 48 hrs by annexin V-FITC/PI satining based flow cytometry (reference value: 97.4 %); type: functional; settings: read-out: Activity
[21] = system: HL-60; experiment: Induction of apoptosis in human HL-60 cells assessed as early apoptotic cells at 0.2 uM incubated for 48 hrs by annexin V-FITC/PI satining based flow cytometry (reference value: 1.24 %); type: functional
[22] = system: HL-60; experiment: Induction of apoptosis in human HL-60 cells assessed as necrotic cells at 0.2 uM incubated for 48 hrs by annexin V-FITC/PI satining based flow cytometry (reference value: 0.00 %); type: functional
[23] = system: HL-60; experiment: Induction of apoptosis in human HL-60 cells assessed as necrotic cells at 1 uM incubated for 48 hrs by annexin V-FITC/PI satining based flow cytometry (reference value: 0.00 %); type: functional
[24] = system: U-937; experiment: Induction of apoptosis in human U-937 cells assessed as early apoptotic cells at 0.2 uM incubated for 48 hrs by annexin V-FITC/PI satining based flow cytometry (reference value: 0.945 %); type: functional
[25] = system: U-937; experiment: Induction of apoptosis in human U-937 cells assessed as necrotic cells at 0.2 uM incubated for 48 hrs by annexin V-FITC/PI satining based flow cytometry (reference value: 1.96 %); type: functional
[26] = system: U-937; experiment: Induction of apoptosis in human U-937 cells assessed as necrotic cells at 0.5 uM incubated for 48 hrs by annexin V-FITC/PI satining based flow cytometry (reference value: 1.96 %); type: functional
[27] = system: HL-60; experiment: Induction of differentiation in human HL-60 cells assessed as increase in CD11b positive cells at 1.5 uM incubated for 24 hrs by FITC staining based flow cytometry (reference value: 1.45 %); type: functional
[28] = system: U-937; experiment: Induction of differentiation in human U-937 cells assessed as increase in CD11b positive cells at 1 uM incubated for 48 hrs by FITC staining based flow cytometry (reference value: 2.72 %); type: functional
[29] = Half life in Sprague-Dawley rat at 5 mg/kg, iv measured upto 6 hrs by LC/MS-MS analysis; type: ADME, organism-based; settings: in vivo
[30] = AUC in Sprague-Dawley rat at 5 mg/kg, iv measured upto 6 hrs by LC/MS-MS analysis; type: ADME, organism-based; parameters: dose 5 mg/kg, time < 6 hrs, route iv; settings: in vivo
[31] = Cmax in Sprague-Dawley rat at 25 mg/kg, po measured upto 8 hrs by LC/MS-MS analysis; type: ADME, organism-based; parameters: time < 8 hrs, dose 25 mg/kg, route po; settings: in vivo
[32] = Tmax in Sprague-Dawley rat at 25 mg/kg, po measured upto 8 hrs by LC/MS-MS analysis; type: ADME, organism-based; settings: in vivo
[33] = Clearance in Sprague-Dawley rat at 25 mg/kg, po measured upto 8 hrs by LC/MS-MS analysis; type: ADME, organism-based; settings: in vivo

Compound: Nc1cc(F)ccc1NC(=O)c1ccc(CNC(=O)/C=C/c2cccnc2)cc1 [TUCIDINOSTAT]
Activity [1]: 2.52%
Activity [2]: 5.95%
Activity [3]: 8.11%
Activity [4]: 2.27%
Activity [5]: 0.05%
Activity [6]: 0.353%
viability at 2.5 µM [7]: 87.5%
Activity [8]: 2.67%
Activity [9]: 0.142%
Activity [10]: 51%
Activity [11]: 93.9%
Activity [12]: 88.5%

inhibition [13]: 100%
inhibition [14]: 100%
IC50 [16]: 0.0404 µM
inhibition [17]: 53.7%
inhibition [18]: 23.1%
t1/2 [29]: 6.6 min
AUC [30]: 836 ng·h/mL
Cmax [31]: 1430 ng/mL
Tmax [32]: 45 min
CL/F [33]: 28.8 mL/min/kg
Compound: Nc1ccccc1NC(=O)c1ccc(NC(=O)c2n[nH]cc2NC(=O)c2c(Cl)cccc2Cl)cc1
IC50 at 72 h [15]: > 20 µM
Activity [19]: Dose-Dependent Effect
viability at 0.2 µM [20]: 96.4%
Activity [21]: 1.61%
Activity [22]: 0.02%
Activity [23]: 0.445%
Activity [24]: 1.56%
Activity [25]: 2.9%
Activity [26]: 4.15%
Activity [27]: 50.9%
Activity [28]: 6%
